The values that follow are results of earlier work, collected in publication PMC9019041, “Structural insights into the peptide selectivity and activation of human neuromedin U receptors” (Nature Communications, 2022).

Where no end group is shown, it is not given here.

Data set [1] deals with neuromedin U receptor 1 (NMUR1). Conditions: low selectivity; cited from earlier work. From the text:
(§1) Human neuromedin U (NMU) is a 25-amino-acid endogenous peptide that was first discovered in extracts of the porcine spinal cord with a potent smooth muscle contractile activity. It is also involved in pleiotropic physiological functions, including the regulation of blood pressure, food uptake, nociception, pain perception, bone formation, and immunological responses. More recently, human neuromedin S (NMS), a 33-amino-acid endogenous peptide, was discovered, which shares an identical C-terminal heptapeptide with NMU. Unlike NMU, which is widely distributed in the central nervous system ( ...

Data set [2] has as its system neuromedin U receptor 2 (NMUR2). The conditions noted are these: low selectivity; cited from earlier work.
From the text: as §1

Regarding “neuromedin S (ILQRGSGTAAVDFTKKDHTATWGRPFFLFRPRN-NH2) [NMS, Human 33-amino-acid endogenous neuropeptide sharing the C-terminal heptapeptide with NMU; agonist of NMUR1 and NMUR2 (GenScript)]”, the affinity entry in data set [1] and in data set [2] was “sub-nanomolar” throughout.
